This note sets out measurements from ChEMBL document CHEMBL1201862, “PubChem BioAssay data set” (2004).

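Where inhibition never reached the appropriate level, the endpoint shown equals the highest concentration tested. Otherwise, values were interpolated linearly from a five-concentration, 48-hour dose response in 96-well plates. GI50 is the concentration that inhibits growth by half.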 Active and inactive are the calls of the source. No stated cut-off is given here; in the data, active = GI50 up to about 1.1 µM and inactive = higher. Square brackets hold non-standard residues; d marks the D form. Peptide text beside a SMILES is read from it. pGlu = O=C1CC[CH](C(=O)O)N1

Among the test systems are EKVX; DU-145; OVCAR-4; SR; SK-MEL-2; K562; CCRF-CEM; HCC 2998; RXF 393; NCI-H23; MDA-MB-231; SF-539; OVCAR-3; HCT-15; PC-3; NCI-H226; 786-0; IGROV-1; OVCAR-5; CAKI-1.
What all share (experiment): NCI tumour cell line growth inhibition, 48 h

With `O=C1C(Br)=C(Br)C(=O)c2c(O)ccc(O)c21`, the GI50 is 20.7 µM (inactive) with EKVX; 12.1 µM (inactive) in the experiment on DU-145; 3.6 µM (inactive) with OVCAR-4; 0.0352 µM (active) with SR; 26.2 µM (inactive) in the experiment on SK-MEL-2; 0.596 µM (active) in the experiment on K562. In addition, the GI50 is 0.189 µM (active) in the experiment with CCRF-CEM; 19.8 µM (inactive) in the experiment with HCC 2998; 2.65 µM (inactive) in the experiment on RXF 393; 4.67 µM (inactive) in the experiment with NCI-H23; 2.64 µM (inactive) in the experiment on MDA-MB-231; 15.9 µM (inactive) in the experiment with SF-539. Besides, the GI50 in the experiment on OVCAR-3 was 5.85 µM (inactive); in the experiment on HCT-15, 2.19 µM; with PC-3, 15.4 µM (inactive); in the experiment on NCI-H226, 28.4 µM (inactive); in the experiment on 786-0 it was 1.56 µM (inactive); in the experiment on IGROV-1, 14.7 µM (inactive). In the experiment with OVCAR-5, the GI50 was 17 µM (inactive).
Regarding `CN(C)Cc1cc(C(=O)/C=C/c2cccc(Cl)c2)cc(CN(C)C)c1O`, the GI50 with EKVX is 7.03 µM (inactive); in the experiment with DU-145, 6.3 µM (inactive); in the experiment on SR, 2.28 µM (inactive); in the experiment with SK-MEL-2, 9.25 µM (inactive); with K562, 2.91 µM (inactive); with CCRF-CEM, 2.07 µM (inactive). The GI50 in the experiment with HCC 2998 was 10.6 µM (inactive); in the experiment on RXF 393, 7.05 µM (inactive); in the experiment with NCI-H23, 14.3 µM (inactive); with MDA-MB-231, 2.75 µM (inactive); with SF-539 it was 6.14 µM (inactive); in the experiment on OVCAR-3, 2.67 µM (inactive). The GI50 with HCT-15 was 2.84 µM; in the experiment with PC-3 it was 8.99 µM (inactive); with NCI-H226 it was 4.31 µM (inactive); with CAKI-1, 1.68 µM (inactive); in the experiment on 786-0, 3.29 µM (inactive); in the experiment on IGROV-1, 3.27 µM (inactive). Moreover, the GI50 in the experiment on OVCAR-5 was 5.69 µM (inactive).
As to `CC(NC(=O)C(Cc1c[nH]cn1)NC(=O)C1CCC(=O)N1)C(N)=O` (stereo not drawn) ([pGlu]-His-Ala-NH2; configuration not given here), the GI50 in the experiment on EKVX, with DU-145, with SR, in the experiment on K562, in the experiment with CCRF-CEM and in the experiment with HCC 2998 was > 100 µM (inactive) in each case. The GI50 with RXF 393, in the experiment on NCI-H23, in the experiment on MDA-MB-231, in the experiment with OVCAR-3, with PC-3 and with NCI-H226 was > 100 µM (inactive) each time. Besides, the GI50 in the experiment on 786-0, in the experiment with IGROV-1 and in the experiment with OVCAR-5 was > 100 µM (inactive) throughout.
For `COc1ccc(NC(=S)C#N)cc1`, the GI50 in the experiment with DU-145 is > 100 µM (inactive); in the experiment on SR it was > 100 µM (inactive); in the experiment on SK-MEL-2 it was > 100 µM (inactive); in the experiment on K562, 49.3 µM (inactive); in the experiment with CCRF-CEM, 54.1 µM (inactive); in the experiment on HCC 2998, > 100 µM (inactive). Further, the GI50 is > 100 µM (inactive) with RXF 393; > 100 µM (inactive) in the experiment with NCI-H23; > 100 µM (inactive) with MDA-MB-231; > 100 µM (inactive) in the experiment on SF-539; > 100 µM (inactive) with OVCAR-3; above 100 µM in the experiment on HCT-15. Further, the GI50 in the experiment on PC-3, in the experiment with NCI-H226, in the experiment on CAKI-1, in the experiment on 786-0 and in the experiment with OVCAR-5 was > 100 µM (inactive) throughout.
Consider `C[C@@]1(c2ccccc2)O[C@@H]2C[C@H]3[C@@H]4CCC5=CC(=O)C=C[C@]5(C)[C@@]4(F)[C@@H](O)C[C@]3(C)[C@]2(C(=O)CO)O1` [AMCINAFIDE], for which the GI50 in the experiment with EKVX was 12.4 µM (inactive); in the experiment on DU-145 it was 20.1 µM (inactive); in the experiment with OVCAR-4, 15 µM (inactive); in the experiment on SR, 19.3 µM (inactive); with SK-MEL-2 it was 14.4 µM (inactive); in the experiment on K562 it was 12.5 µM (inactive). Also, the GI50 in the experiment on HCC 2998 was 17.3 µM (inactive); in the experiment on RXF 393, 20.1 µM (inactive); in the experiment with NCI-H23, 18.1 µM (inactive); with MDA-MB-231, 11.1 µM (inactive); with OVCAR-3, 15 µM (inactive); in the experiment with HCT-15, 17.9 µM. Also, the GI50 in the experiment with PC-3 was 16 µM (inactive); with NCI-H226, 15.8 µM (inactive); with CAKI-1 it was 23.3 µM (inactive); in the experiment with 786-0, 16.3 µM (inactive); with IGROV-1, 17.7 µM (inactive); with OVCAR-5, 15.6 µM (inactive).
For `Cc1[nH]c(/C=C2\C(=O)Nc3ccccc32)c(C)c1CCC(=O)O` [ORANTINIB], the GI50 is 28.5 µM (inactive) in the experiment with EKVX; 31.5 µM (inactive) with DU-145; 33.6 µM (inactive) in the experiment with OVCAR-4; 23.9 µM (inactive) with SR; 16.8 µM (inactive) with SK-MEL-2; 36.4 µM (inactive) in the experiment with K562. For the same molecule, the GI50 was 34.7 µM (inactive) in the experiment on CCRF-CEM; 35.6 µM (inactive) in the experiment with HCC 2998; 29.1 µM (inactive) in the experiment with RXF 393; 27.7 µM (inactive) in the experiment with NCI-H23; 37.9 µM (inactive) in the experiment with MDA-MB-231; 22.1 µM (inactive) with OVCAR-3. Besides, the GI50 with HCT-15 was 31.4 µM; in the experiment with PC-3 it was 35.7 µM (inactive); in the experiment with CAKI-1, 22.1 µM (inactive); in the experiment with 786-0 it was 51.4 µM (inactive); with IGROV-1, 21.9 µM (inactive); with OVCAR-5, 27.5 µM (inactive).
For `CC(=O)NC1(C)CCC(C(C)(C)NC(C)=O)CC1` (centres undefined), the GI50 in the experiment with EKVX, with DU-145, in the experiment with OVCAR-4, with SR, with K562 and in the experiment on CCRF-CEM was > 100 µM (inactive) throughout. Also, the GI50 in the experiment with HCC 2998, in the experiment on RXF 393, in the experiment on NCI-H23, in the experiment on MDA-MB-231, in the experiment on SF-539 and with OVCAR-3 was > 100 µM (inactive) throughout. The GI50 is above 100 µM in the experiment on HCT-15; > 100 µM (inactive) in the experiment with PC-3; > 100 µM (inactive) with NCI-H226; > 100 µM (inactive) with CAKI-1; > 100 µM (inactive) in the experiment on 786-0; > 100 µM (inactive) in the experiment with IGROV-1. The GI50 in the experiment with OVCAR-5 is > 100 µM (inactive).
In the case of `CCN1C(c2ccccc2)=CC(c2ccccc2)(C(Cl)(Cl)Cl)C=C1c1ccccc1`, the GI50 was 4.22 µM (inactive) in the experiment on EKVX; 14.8 µM (inactive) in the experiment with DU-145; 24 µM (inactive) with OVCAR-4; > 10 µM (inactive) with SR; 2.52 µM (inactive) with K562; 5.58 µM (inactive) with CCRF-CEM. In addition, the GI50 with HCC 2998 is 3.04 µM (inactive); in the experiment on RXF 393 it was 17.5 µM (inactive); in the experiment with NCI-H23, 8.81 µM (inactive); in the experiment on MDA-MB-231, 3.4 µM (inactive); with SF-539 it was 15.6 µM (inactive); with OVCAR-3, 7 µM (inactive). Also, the GI50 in the experiment with HCT-15 is 42.9 µM; in the experiment with PC-3, 20.6 µM (inactive); with NCI-H226, 19.2 µM (inactive); in the experiment with CAKI-1, 30.8 µM (inactive); with 786-0, 9.44 µM (inactive); with IGROV-1 it was 4.7 µM (inactive). Besides, in the experiment on OVCAR-5, the GI50 is 15.1 µM (inactive).
